Laboratory results reported in US4883758A, “Biologically pure culture of the microorganism Streptomycas tropolofaciens used for producing 3,7-dihydroxytropolone and antitumor use” (priority 1989, dated 1989).
Where two headings read alike, the source gives them in different places.

Legend:
[1] = test system: B16-F10 murine melanoma tumor cells; test: In vitro cytotoxicity against B16-F10 melanoma cells (72 h, neutral red); format: cell-based
Method: (§1) BU-3129T (3,7-dihydroxytropolone) and its analogs were tested for in vitro cytotoxicity against logarithmically growing murine melanoma tumor cells in liquid culture. B16-F10 cells (4×10^4 cells) in the enriched MEM (Minimum essential medium (Eagle's)) containing test material solution were planted into wells of 96-well microtiter plates and incubated at 37° C., with 5% CO2 under high humidity for 72 hours. After staining with neutral red, cytotoxicity of test material was determined colorimetrically. The inhibitory effects on macromolecule biosynthesis were examined in cultured L1210 leukemia cells. L1210 cells (5×10^5 cells) were exposed to radioactive precursors (^3 H-thymidine, ^14 C-uridine and ^3 H-leucine) for 60 min after the treatment with test material for 15 min. The incorporated radioactivities into acid-insoluble fractions were measured by using a liquid scintillation counter. The in vivo antitumor activity of BU-3129T was determined in male BDF1 mice against leukemia P388 and melanoma B16. Leukemia P388 and melanoma B 16 were inoculated by the intraperitoneal injection at 10^6 cells and 0.5 ml of a 10% tumor brei per mouse, respectively. Test material was administered to mice intraperitoneally once daily through 1 to 9 days after tumor implantation. Tropolone and mitomycin C were comparatively tested in the experiments.

[2] = Kirst, et. al., J. Antibiotics 1982; cited from earlier work
[3] = test system: Leukemia P388; format: in vivo, male BDF1 mice; murine tumor; settings: for T/C: MST
Method: as §1

[4] = test system: Melanoma B16; test: In vivo antitumor activity against melanoma B16 in mice, Exp. 1; parameters: species or system male BDF1 mice; murine tumor; settings: for T/C: MST
Method: as §1

[5] = test system: Melanoma B16; test: In vivo antitumor activity against melanoma B16 in mice, Exp. 2; parameters: species or system male BDF1 mice; murine tumor; settings: for Average weight change on day 5: B16 Exp. 2, qd 1→9, ip
Method: as §1

[6] = B16 Exp. 1, 0.16 mg/kg/day, qd 1→9, ip
[7] = B16 Exp. 1, 0.31 mg/kg/day, qd 1→9, ip
[8] = B16 Exp. 1, 0.63 mg/kg/day, qd 1→9, ip
[9] = B16 Exp. 1, 1.3 mg/kg/day, qd 1→9, ip
[10] = B16 Exp. 1, 2.5 mg/kg/day, qd 1→9, ip
[11] = P388, 0.63 mg/kg/day, qd 1→9, ip
[12] = B16 Exp. 1, 0.1 mg/kg/day, qd 1→9, ip
[13] = B16 Exp. 1, 0.3 mg/kg/day, qd 1→9, ip
[14] = B16 Exp. 1, 1.0 mg/kg/day, qd 1→9, ip

## O=c1c(O)cccc(O)c1O [BU-3129T, 3,7-dihydroxytropolone]
[1]
  Potency in the in vitro cytotoxicity test: most potent
[2]
  Antimicrobial activity: possesses antimicrobial activity
[3]; mice bearing murine tumors, ip
  Antitumor activity against leukemia P388 (in words): no activity
[4]; [6]
  Average weight change on day 5: +0.4 g
  MST: 16.0 days
  T/C: 100%
[4]; [7]
  Average weight change on day 5: +1.2 g
  MST: 18.0 days
  T/C: 113%
[4]; [8]
  Average weight change on day 5: +1.0 g
  MST: 23.0 days
  T/C: 144%
[4]; [9]
  Average weight change on day 5: +0.4 g
  MST: 29.0 days
  T/C: 181%
[4]; [10]
  Average weight change on day 5: -0.8 g
  MST: 12.0 days
  T/C: 75%
[4]; B16 Exp. 1, 5.0 mg/kg/day, qd 1→9, ip
  tox: tox
[4]; mice bearing murine tumors, ip
  Antitumor activity against melanoma B16 (in words): significant antitumor activity
[4]; overall conclusion from the data
  Inhibitory action against mammalian malignant tumors (in words): marked inhibitory action

## CO[C@@]12[C@H](COC(N)=O)C3=C(C(=O)C(C)=C(N)C3=O)N1C[C@@H]1N[C@@H]12 [Mitomycin C, reference compound]
[3]; [11]
  MST: 21.0 days
  T/C: 200%
[3]; P388, 0.08 mg/kg/day, qd 1→9, ip
  T/C: 114%
[3]; P388, 0.16 mg/kg/day, qd 1→9, ip
  T/C: 143%
[3]; P388, 0.31 mg/kg/day, qd 1→9, ip
  T/C: 152%
[3]; P388, 1.3 mg/kg/day, qd 1→9, ip
  T/C: 200%
[4]; [12]
  Average weight change on day 5: +1.0 g
  T/C: 100%
[4]; [13]
  Average weight change on day 5: +0.4 g
  MST: 22.0 days
  T/C: 128%
[4]; [14]
  Average weight change on day 5: +0.6 g
  MST: 27.0 days
  T/C: 169%

## O=c1cccccc1O [Tropolone]
[5]; 1.0 mg/kg/day
  Average weight change on day 5: +2.3 g
[5]; 3.0 mg/kg/day
  Average weight change on day 5: +2.5 g
[5]; 10 mg/kg/day
  Average weight change on day 5: +3.3 g
[5]; 30 mg/kg/day
  Average weight change on day 5: +2.0 g
[5]; at the doses tested
  Antitumor activity against melanoma B16 (in words): did not show any activity
